Laboratory results reported in PubChem BioAssay (NCI).
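Step 1: Grow cells in 96-well plates. Step 2: Expose to compound for 48 hours at 5 concentrations. Step 3: Interpolate endpoints linearly; if unreached, use highest concentration. GI50 = concentration required for 50% inhibition of growth. TGI: concentration producing complete growth inhibition.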

Columns and labels:
Experiment in all cases: NCI-60 cell line screen, 48 h
MDA-MB-468 breast = system: MDA-MB-468 breast
786-0 renal = system: 786-0 renal
A498 renal = system: A498 renal
A549 NSCLC = system: A549 NSCLC
ACHN renal = system: ACHN renal
BT-549 breast = system: BT-549 breast
CAKI-1 renal = system: CAKI-1 renal
CCRF-CEM leukemia = system: CCRF-CEM leukemia
COLO 205 colon = system: COLO 205 colon
DU-145 prostate = system: DU-145 prostate
EKVX NSCLC = system: EKVX NSCLC
HCC-2998 colon = system: HCC-2998 colon
HCT-116 colon = system: HCT-116 colon
HCT-15 colon = system: HCT-15 colon
HL-60(TB) leukemia = system: HL-60(TB) leukemia
HOP-62 NSCLC = system: HOP-62 NSCLC
HOP-92 NSCLC = system: HOP-92 NSCLC
HT29 colon = system: HT29 colon
IGROV1 ovarian = system: IGROV1 ovarian
K-562 leukemia = system: K-562 leukemia
KM12 colon = system: KM12 colon
LOX IMVI melanoma = system: LOX IMVI melanoma
MALME-3M melanoma = system: MALME-3M melanoma
MCF7 breast = system: MCF7 breast
MDA-MB-231 breast = system: MDA-MB-231 breast
MDA-MB-435 = system: MDA-MB-435
NCI-H226 lung = system: NCI-H226 lung
NCI-H23 lung = system: NCI-H23 lung
NCI-H460 lung = system: NCI-H460 lung
NCI-H522 lung = system: NCI-H522 lung
OVCAR-3 ovarian = system: OVCAR-3 ovarian
OVCAR-4 ovarian = system: OVCAR-4 ovarian
OVCAR-5 ovarian = system: OVCAR-5 ovarian
OVCAR-8 ovarian = system: OVCAR-8 ovarian
PC-3 prostate = system: PC-3 prostate
RPMI-8226 leukemia = system: RPMI-8226 leukemia
RXF 393 renal = system: RXF 393 renal
SF-268 CNS = system: SF-268 CNS
SF-295 CNS = system: SF-295 CNS
SF-539 CNS = system: SF-539 CNS
SK-MEL-2 melanoma = system: SK-MEL-2 melanoma
SK-MEL-28 melanoma = system: SK-MEL-28 melanoma
SK-MEL-5 melanoma = system: SK-MEL-5 melanoma
SK-OV-3 ovarian = system: SK-OV-3 ovarian
SN12C renal = system: SN12C renal
SNB-19 CNS = system: SNB-19 CNS
SR leukemia = system: SR leukemia
SW-620 colon = system: SW-620 colon
T-47D breast = system: T-47D breast
TK-10 renal = system: TK-10 renal
U251 CNS = system: U251 CNS
UACC-257 melanoma = system: UACC-257 melanoma
UACC-62 melanoma = system: UACC-62 melanoma
UO-31 renal = system: UO-31 renal

For `Cc1n(Cc2ccc3ccccc3c2)cc[n+]1Cc1ccc2ccccc2c1`, the GI50 (MDA-MB-468 breast) was 0.252 µM and the TGI (MDA-MB-468 breast) was 0.819 µM.

`CN(C)c1ccc2nc3ccc(=O)cc-3sc2c1` gave a GI50 (MDA-MB-468 breast) of 1.49 µM and a TGI (MDA-MB-468 breast) of 6.99 µM.

For `COc1cc(/C=C/C(=O)c2cnn(-c3cc(=O)[nH]c4ccc(Br)cc34)c2C)cc(OC)c1OC`, the GI50 (786-0 renal) was 3.63 µM, the TGI (786-0 renal) was 14.3 µM and the GI50 (A498 renal) was 28.5 µM. For the same compound, the TGI (A498 renal) was 51.6 µM, the GI50 (A549 NSCLC) was 3.52 µM and the TGI (A549 NSCLC) was greater than 100 µM. It also gave a GI50 (ACHN renal) of 1.84 µM, a TGI (ACHN renal) of 4.31 µM and a GI50 (BT-549 breast) of 2.29 µM. For the same compound, the TGI (BT-549 breast) was 6.28 µM, the GI50 (CAKI-1 renal) was 4.11 µM and the TGI (CAKI-1 renal) was 31.3 µM. It also gave a GI50 (CCRF-CEM leukemia) of 2.88 µM, a TGI (CCRF-CEM leukemia) greater than 100 µM and a GI50 (COLO 205 colon) of 3.35 µM. It also gave a TGI (COLO 205 colon) of 10.9 µM, a GI50 (DU-145 prostate) of 3.61 µM and a TGI (DU-145 prostate) of 30.5 µM. The GI50 (EKVX NSCLC) was 2.96 µM, the TGI (EKVX NSCLC) was 13.4 µM and the GI50 (HCC-2998 colon) was 3.3 µM. For the same compound, the TGI (HCC-2998 colon) was 11 µM, the GI50 (HCT-116 colon) was 3.27 µM and the TGI (HCT-116 colon) was 11.5 µM. For the same compound, the GI50 (HCT-15 colon) was 1.71 µM, the TGI (HCT-15 colon) was 3.92 µM and the GI50 (HL-60(TB) leukemia) was 3 µM. For the same compound, the TGI (HL-60(TB) leukemia) was greater than 100 µM, the GI50 (HOP-62 NSCLC) was 3.55 µM and the TGI (HOP-62 NSCLC) was 17.2 µM. It also gave a GI50 (HOP-92 NSCLC) of 8.2 µM, a TGI (HOP-92 NSCLC) greater than 100 µM and a GI50 (HT29 colon) of 2.2 µM. The TGI (HT29 colon) was 5.07 µM, the GI50 (IGROV1 ovarian) was 2.23 µM and the TGI (IGROV1 ovarian) was 6.33 µM. The GI50 (K-562 leukemia) was 2.86 µM, the TGI (K-562 leukemia) was greater than 100 µM and the GI50 (KM12 colon) was 3.48 µM. For the same compound, the TGI (KM12 colon) was 14.6 µM, the GI50 (LOX IMVI melanoma) was 1.49 µM and the TGI (LOX IMVI melanoma) was 3.35 µM. It also gave a GI50 (MALME-3M melanoma) of 4.66 µM, a TGI (MALME-3M melanoma) of 22.3 µM and a GI50 (MCF7 breast) of 2.16 µM. It also gave a TGI (MCF7 breast) of 9.06 µM, a GI50 (MDA-MB-231 breast) of 3.11 µM and a TGI (MDA-MB-231 breast) of 13.7 µM. For the same compound, the GI50 (MDA-MB-435) was 2.72 µM, the TGI (MDA-MB-435) was 8.65 µM and the GI50 (MDA-MB-468 breast) was 1.93 µM. It also gave a TGI (MDA-MB-468 breast) of 5.43 µM, a GI50 (NCI-H226 lung) of 2.49 µM and a TGI (NCI-H226 lung) of 7.38 µM. It also gave a GI50 (NCI-H23 lung) of 1.92 µM, a TGI (NCI-H23 lung) of 4.33 µM and a GI50 (NCI-H460 lung) of 2.39 µM. It also gave a TGI (NCI-H460 lung) of 5.37 µM, a GI50 (NCI-H522 lung) of 2.26 µM and a TGI (NCI-H522 lung) of 5.98 µM. It also gave a GI50 (OVCAR-3 ovarian) of 3.45 µM, a TGI (OVCAR-3 ovarian) of 12.1 µM and a GI50 (OVCAR-4 ovarian) of 5.2 µM. The TGI (OVCAR-4 ovarian) was greater than 100 µM, the GI50 (OVCAR-5 ovarian) was 3.09 µM and the TGI (OVCAR-5 ovarian) was 10.7 µM. It also gave a GI50 (OVCAR-8 ovarian) of 3.48 µM, a TGI (OVCAR-8 ovarian) greater than 100 µM and a GI50 (PC-3 prostate) of 5.19 µM. It also gave a TGI (PC-3 prostate) greater than 100 µM, a GI50 (RPMI-8226 leukemia) of 2.84 µM and a TGI (RPMI-8226 leukemia) greater than 100 µM. For the same compound, the GI50 (RXF 393 renal) was 1.87 µM, the TGI (RXF 393 renal) was 3.95 µM and the GI50 (SF-268 CNS) was 3.76 µM. For the same compound, the TGI (SF-268 CNS) was greater than 100 µM, the GI50 (SF-295 CNS) was 2.4 µM and the TGI (SF-295 CNS) was 7.75 µM. The GI50 (SF-539 CNS) was 2.03 µM, the TGI (SF-539 CNS) was 4.54 µM and the GI50 (SK-MEL-2 melanoma) was 3.52 µM. For the same compound, the TGI (SK-MEL-2 melanoma) was 12.2 µM, the GI50 (SK-MEL-28 melanoma) was 2.84 µM and the TGI (SK-MEL-28 melanoma) was 8.75 µM. The GI50 (SK-MEL-5 melanoma) was 3.05 µM, the TGI (SK-MEL-5 melanoma) was 10.7 µM and the GI50 (SK-OV-3 ovarian) was 4.34 µM. It also gave a TGI (SK-OV-3 ovarian) greater than 100 µM, a GI50 (SN12C renal) of 2.94 µM and a TGI (SN12C renal) of 11.6 µM. It also gave a GI50 (SNB-19 CNS) of 3.25 µM, a TGI (SNB-19 CNS) of 12.6 µM and a GI50 (SR leukemia) of 2.44 µM. The TGI (SR leukemia) was greater than 100 µM, the GI50 (SW-620 colon) was 3.09 µM and the TGI (SW-620 colon) was 8.61 µM. For the same compound, the GI50 (T-47D breast) was 3.06 µM, the TGI (T-47D breast) was 18.8 µM and the GI50 (TK-10 renal) was 3.8 µM. It also gave a TGI (TK-10 renal) of 24.1 µM, a GI50 (U251 CNS) of 2.54 µM and a TGI (U251 CNS) of 7.37 µM. It also gave a GI50 (UACC-257 melanoma) of 7.78 µM, a TGI (UACC-257 melanoma) of 48.5 µM and a GI50 (UACC-62 melanoma) of 1.79 µM. The TGI (UACC-62 melanoma) was 4 µM, the GI50 (UO-31 renal) was 2.83 µM and the TGI (UO-31 renal) was 12.5 µM.
